By IC50 is commonly meant the point on the concentration scale where inhibition reaches its midpoint. Low values mean higher potency, high ones lower potency.

Sequence of human IDO1 (P14902 whole entry): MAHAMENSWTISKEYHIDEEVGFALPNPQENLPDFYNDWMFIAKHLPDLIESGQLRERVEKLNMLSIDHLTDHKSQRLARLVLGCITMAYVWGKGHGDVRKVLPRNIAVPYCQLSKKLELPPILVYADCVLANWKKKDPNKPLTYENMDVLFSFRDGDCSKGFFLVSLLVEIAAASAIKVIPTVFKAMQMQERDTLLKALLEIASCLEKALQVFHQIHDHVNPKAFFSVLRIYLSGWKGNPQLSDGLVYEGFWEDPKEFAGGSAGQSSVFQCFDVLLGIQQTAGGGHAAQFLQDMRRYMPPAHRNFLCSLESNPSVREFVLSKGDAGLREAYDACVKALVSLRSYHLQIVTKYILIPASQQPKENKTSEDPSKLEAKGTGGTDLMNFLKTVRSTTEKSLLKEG

The assay concerns the target human IDO1 (Homo sapiens, UniProt P14902). The experiment in a line: Assessment of human IDO-1 inhibitory activity in Hela cells (Interferon-gamma activated, Ehrlich reagent, absorbance at 490 nm). In kind it is cell-based. Also noted: endogenous in cells; host or cells: HeLa cells stimulated with interferon-gamma. The following applies: 18 hours. As to the method: Exemplary compounds were tested for inhibition of IDO activity.
HeLa cells were seeded at 20,000 cells per 30 µL per well with RPMI/phenol red free media containing 10% FBS in a 384-well tissue culture plate (black with clear bottoms). 50 nL of compound was added to cells and incubated at 37° C. for one hour. 20 μL of the recombinant human Interferon-gamma (R&D System, Cat. #285-IF, at final concentration of 10 ng/ml) or recombinant murine Interferon-gamma (PEPROTECH® Inc., Cat. #315-05, final concentration of 5 ng/ml) was added to activate IDO signaling. The cells were incubated for 18 hours in 37° C. incubator with 5% CO2.
Compound treatment was stopped by adding 5 μl trichloroacetic acid to a final concentration of 3%. Subsequently, the cell plate was further incubated at 50° C. for 30 minute. An equal volume supernatant (20 μL) and 2% (w/v) Ehrlich reagent (4-dimethylaminobenzaldehyde) in glacial acetic acid were mixed in a new clear bottom 384-well plate. This plate was incubated at room temperature for 30 minutes. Absorbance at 490 nm was measured on Envision plate reader.
Compound IC50 values were calculated using counts from unstimulated (no INF-gamma treatment) wells as 100% inhibition. INF-gamma treatment without compound treatment as 0% inhibition.
The molecule `CCN(c1c(F)cc(C(COC)CC(=O)O)cc1NC(=O)Nc1ccc(Cl)cc1F)C1CCOCC1` (single isomer, unassigned) [Example 917, 3-(3-(3-(4-Chloro-2-fluorophenyl)ureido)-4-(ethyl(tetrahydro-2H-pyran-4-yl)amino)-5-fluorophenyl)-4-methoxybutanoic acid] gave an IC50 of over 50 nM.

“(R)-3-(4-((1,1-dioxidotetrahydro-2H-thiopyran-4-yl)(ethyl)amino)-3-((2-methoxypyrimidin-5-yl)amino)phenyl)-4-isopropoxybutanoic acid [Example 332]” gave an IC50 of over 50 nM.

For `CCN(c1ccc([C@@H](COC)CC(=O)O)cc1Nc1ccc(C#N)c(OC)c1)C1CCOCC1` [Example 380], the half-maximal inhibitory concentration (IC50) was under 50 nM.

In turn, `CCC(CC(=O)O)c1ccc(N(CCOC)C2CCOCC2)c(Nc2cnc(OC)nc2)c1` (single isomer, unassigned) [Example 1262, 3-(4-((2-methoxyethyl)(tetrahydro-2H-pyran-4-yl)amino)-3-((2-methoxypyrimidin-5-yl)amino)phenyl)pentanoic acid] showed an IC50 of under 50 nM.

In turn, `CCOc1ncc(Nc2cc(C(CC(=O)O)C3CC3)ccc2N2C[C@@H](C)O[C@@H](C)C2)cn1` (stereo partly drawn) [Example 250, 3-cyclopropyl-3-(4-((2R,6S)-2,6-dimethylmorpholino)-3-((2-ethoxypyrimidin-5-yl)amino)phenyl) propanoic acid] returned an IC50 of over 50 nM.

Regarding `C[C@@H]1CN(c2ccc(C(CC(=O)O)C3CC3)cc2NC(=O)Nc2ccc(Cl)cc2F)C[C@H](C)O1` (single isomer, unassigned) [Example 253], the IC50 was over 50 nM.

Molecule `CCOc1ncc(Nc2cc(C(CC)CC(=O)O)ccc2N2CCC(C)CC2)cn1` (single isomer, unassigned) [Example 45, 3-(3-((2-ethoxypyrimidin-5-yl)amino)-4-(4-methylpiperidin-1-yl)phenyl)pentanoic acid] returned an IC50 of over 50 nM.

In the case of `CCN(c1ccc(C(COC)CC(=O)O)cc1NC(=O)Nc1ccc(C#N)cc1)C1CCOCC1` (single isomer, unassigned) [Example 422 E2], the concentration for half-maximal inhibition (IC50) is over 50 nM.

As for `CCN(c1ccc([C@H](COC)CC(=O)O)cc1Nc1ccc(C)cc1)C1CCOCC1` (single isomer, unassigned) [Example 410], the IC50 is under 50 nM.

The molecule `COCC(CC(=O)O)c1ccc(N2CCOC(C)(C)C2)c(Nc2ccc(C#N)cc2)c1` (single isomer, unassigned) [Example 1317] came in with an IC50 of over 50 nM.

`COCC(CC(=O)O)c1ccc(N(CC(F)F)C2CCOCC2)c(Nc2ccc(C#N)cc2)c1` (single isomer, unassigned) [Example 323] gave an IC50 of under 5 nM.

`CC[C@H](CC(=O)O)c1ccc(N(CC)C2CCOCC2)c(Nc2ccc(C#N)cn2)c1` (single isomer, unassigned) [Example 504] gave an IC50 of under 5 nM.

Molecule `CCC1COCCN1c1ccc([C@H](COC)CC(=O)O)cc1Nc1ccc(C#N)cn1` (single isomer, unassigned) [Example 1305] had an IC50 of over 50 nM.

`CCOc1ncc(Nc2cc(C(CC)CC(=O)O)ccc2N2CCN(C(=O)OC)CC2)cn1` (single isomer, unassigned) [Example 670, 3-(3-((2-Ethoxypyrimidin-5-yl)amino)-4-(4-(methoxycarbonyl)piperazin-1-yl)phenyl)pentanoic acid] showed an IC50 of over 50 nM.

Regarding `CCC(CC(=O)O)c1cc(Nc2cnc(OC)nc2)c(N(CC)C2CCOCC2)cc1F` (single isomer, unassigned) [Example 864, 3-(4-(ethyl(tetrahydro-2H-pyran-4-yl)amino)-2-fluoro-5-((2-methoxypyrimidin-5-yl)amino)phenyl)pentanoic acid], the IC50 is under 5 nM.

“(S)-3-(3-((4-chlorophenyl)amino)-4-((1,1-dioxidotetrahydro-2H-thiopyran-4-yl)(ethyl)amino)phenyl)-4-isopropoxybutanoic acid [Example 325]” showed an IC50 of under 5 nM.

Take `CCN(c1ccc(C(CC(=O)O)C2CC2)cc1Nc1ccc(F)cc1)C1CCS(=O)(=O)CC1` (single isomer, unassigned) [Example 347, 3-cyclopropyl-3-(4-((1,1-dioxidotetrahydro-2H-thiopyran-4-yl)(ethyl)amino)-3-((4-fluorophenyl)amino)phenyl)propanoic acid]: the IC50 is under 5 nM.

In turn, `COCC(CC(=O)O)c1ccc(N2CCOC(C)C2)c(Nc2ccc(C#N)cc2)c1` (single isomer, unassigned) [Example 1313] had an IC50 of over 50 nM.

The molecule `CCC1COCCN1c1ccc([C@H](COC)CC(=O)O)cc1Nc1cnc(OC)nc1` (single isomer, unassigned) [Example 1306] gave an IC50 of over 50 nM.

Regarding `CCC(CC(=O)O)c1ccc(N(CC)C2CCN(Cc3ccccc3)CC2)c(Nc2ccc(C#N)cc2)c1` (single isomer, unassigned) [Example 943, 3-(4-((1-benzylpiperidin-4-yl)(ethyl)amino)-3-((4-cyanophenyl)amino)phenyl) pentanoic acid], the IC50 was under 5 nM.

Turning to “(R)-3-(4-((1,1-dioxidotetrahydro-2H-thiopyran-4-yl)(ethyl)amino)-3-((4-fluorophenyl)amino)phenyl)-4-isopropoxybutanoic acid [Example 331]”, the IC50 was under 50 nM.

In turn, `CC(CC(=O)O)c1ccc(N(CC(C)(C)O)C2CCCCC2)c(Nc2ccc(Cl)cc2)c1` (single isomer, unassigned) [Example 48 Enantiomer 2, 3-(3-((4-Chlorophenyl)amino)-4-(cyclohexyl(2-hydroxy-2-methylpropyl)amino)phenyl)butanoic acid] returned an IC50 of under 5 nM.

Regarding `CCN(c1ccc(C(CC(=O)O)C2CC2)cc1Nc1cnc(OC)nc1)C1CCOCC1` (single isomer, unassigned) [Example 38, 3-cyclopropyl-3-(4-(ethyl(tetrahydro-2H-pyran-4-yl)amino)-3-((2-methoxypyrimidin-5-yl)amino)phenyl) propanoic acid], the IC50 is under 50 nM.

Turning to `COCC(CC(=O)O)c1cc(F)c(N(CC(C)C)CC(C)C)c(Nc2ccc(Cl)cc2)c1` (single isomer, unassigned) [Example 921, 3-(3-((4-Chlorophenyl)amino)-4-(diisobutylamino)-5-fluorophenyl)-4-methoxybutanoic acid], the IC50 is under 5 nM.

Turning to `CCC(CC(=O)O)c1ccc(N(CC)C2CCCOC2)c(Nc2ccc(C#N)cc2)c1` (single isomer, unassigned) [Example 67, 3-(3-((4-cyanophenyl)amino)-4-(ethyl (tetrahydro-2H-pyran-3-yl)amino)phenyl)pentanoic acid], the IC50 was under 5 nM.

`CCC(CC(=O)O)c1ccc(N2CCC(C)CC2)c(Nc2cnc(OC)nc2)c1` (single isomer, unassigned) [Example 44, 3-(3-((2-methoxypyrimidin-5-yl)amino)-4-(4-methylpiperidin-1-yl)phenyl) pentanoic acid] yielded an IC50 of over 50 nM.

As for `CCc1ccc(Nc2cc(C(COC)CC(=O)O)cc(F)c2N(CC(C)C)CC(C)C)cc1` (single isomer, unassigned) [Example 926, 3-(4-(diisobutylamino)-3-((4-ethylphenyl)amino)-5-fluorophenyl)-4-methoxybutanoic acid.], the IC50 was under 50 nM.
